Measured values from ChEMBL document CHEMBL1764964, “Extending SAR of bile acids as FXR ligands: discovery of 23-N-(carbocinnamyloxy)-3α,7α-dihydroxy-6α-ethyl-24-nor-5β-cholan-23-amine” (Bioorg Med Chem, 2011).
Calls of active or inactive are those of the source. The calls are words filed in the database; no cut-off is given here.

How the values were obtained:
Bile acid receptor = target: T1, Bile acid receptor (Homo sapiens, UniProt Q96RI1); assay: Agonist activity at human GST-fused FXR LBD assessed as coactivator interaction with receptor ligand binding domain by Alphascreen assay
T1 sequence (Q96RI1 whole entry): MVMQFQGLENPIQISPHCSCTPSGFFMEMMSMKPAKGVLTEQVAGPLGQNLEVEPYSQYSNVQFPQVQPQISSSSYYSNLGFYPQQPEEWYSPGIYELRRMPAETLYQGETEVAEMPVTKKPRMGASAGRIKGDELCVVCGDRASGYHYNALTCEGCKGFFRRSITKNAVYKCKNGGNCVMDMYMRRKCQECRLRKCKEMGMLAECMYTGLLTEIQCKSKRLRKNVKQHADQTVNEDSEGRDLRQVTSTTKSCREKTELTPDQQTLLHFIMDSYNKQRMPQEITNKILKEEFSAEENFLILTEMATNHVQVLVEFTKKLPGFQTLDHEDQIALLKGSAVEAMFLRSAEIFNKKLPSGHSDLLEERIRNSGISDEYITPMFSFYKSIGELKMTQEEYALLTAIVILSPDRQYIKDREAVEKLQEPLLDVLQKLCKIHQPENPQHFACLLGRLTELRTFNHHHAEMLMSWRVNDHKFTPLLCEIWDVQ

[1] = target: T2, Bile acid receptor (Homo sapiens) (UniProt Q96RI1); assay: Agonist activity at human GST-fused FXR LBD assessed as coactivator interaction with receptor ligand binding domain by Alphascreen assay relative to CDCA
T2 sequence (whole entry): T1 sequence (Q96RI1 whole entry)

[2] = target: T2, Bile acid receptor (Homo sapiens); assay: Agonist activity at human FXR expressed in HepG2 cells assessed as renilla luciferase activity at 20 uM by luciferase based transactivation assay; format: functional, cell-based
[3] = target: T3, G-protein coupled bile acid receptor 1 (Homo sapiens, UniProt Q8TDU6); assay: Agonist activity at human TGR5 receptor expressed in NCI-H716 cells assessed as intracellular cAMP level by TR-FRET assay; format: functional, cell-based
T3 sequence (Q8TDU6 whole entry): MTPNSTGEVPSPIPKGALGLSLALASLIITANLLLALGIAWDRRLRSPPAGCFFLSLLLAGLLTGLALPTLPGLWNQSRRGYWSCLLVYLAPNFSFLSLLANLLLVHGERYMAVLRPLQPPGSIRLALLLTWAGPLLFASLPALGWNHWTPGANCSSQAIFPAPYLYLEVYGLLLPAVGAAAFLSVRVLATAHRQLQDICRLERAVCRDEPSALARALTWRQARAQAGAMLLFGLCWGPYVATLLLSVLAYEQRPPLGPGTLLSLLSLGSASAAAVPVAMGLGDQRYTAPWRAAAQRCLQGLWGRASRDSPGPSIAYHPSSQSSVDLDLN

[4] = target: T2, Bile acid receptor (Homo sapiens); assay: Agonist activity at human FXR expressed in HepG2 cells assessed as renilla luciferase activity at 1 uM by luciferase based transactivation assay; format: functional, cell-based

Row | SMILES | EC50 (Bile acid receptor) | Efficacy [1] | Activity [2] | EC50 [3] | Activity [4]
1 | C[C@H](CCNC(=O)OC/C=C/c1ccccc1)C1CC[C@H]2[C@@H]3[C@H](O)CC4C[C@H](O)CC[C@]4(C)[C@H]3CC[C@]12C (stereo partly drawn) | 900 nM | 55% | Active | > 100000 nM | 
2 | CC[C@H]1[C@@H](O)[C@@H]2[C@H](CC[C@]3(C)[C@@H]([C@H](C)CCNC(=O)OC/C=C/c4ccccc4)CC[C@@H]23)[C@@]2(C)CC[C@@H](O)C[C@@H]12 | 150 nM | 290% |  | 55000 nM | Active
